In the data set the test system is Kupffer cells. In words: Kupffer cell replacement in mice: gadolinium chloride followed by GFP bone marrow stem cells. Format: in vivo, C57BL/6 mice. As to the method:
Bone marrow derived from C57BL/6-TgN(ACTbEGFP)10sb mice was injected into the tail vein of recipient C57BL/6 mice. Recipient mice were separated into two groups. One group received saline injection the other received gadolinium chloride (20-60 mg/kg i.v.: ICN Biomedicals, Aurora, Ohio) 24 hours before they received the bone marrow cells obtained from C57BL/6-TgN (ACTbEGFP) 10sb mice. The amount of bone marrow cells administered varied between 2×10^6 to 100×10^6 cells/animal. Mice were sacrificed 2 weeks after the stem cells were injected and livers were removed, fixed and prepared for fluorescent microscopy.
C57BL/6 mice were injected with 60 mg/Kg of gadolinium chloride 24 hours before injecting stem cells intravenously.

[1] abbreviates: 60 mg/Kg gadolinium chloride 24 hours before stem cells i.v., two weeks after injection.

Turning to `[Cl][Gd]([Cl])[Cl]` [gadolinium chloride], under setting [1], the “GFP labeled Kupffer cells in liver, 10×10^6 stem cells vs 2×10^6 stem cells” value is “many more GFP labeled Kupffer cells” and the “number of GFP-labeled Kupffer cells, 100×10^6 stem cells vs 10×10^6 stem cells” value is “did not significantly increase the number of GFP-labeled Kupffer cells”. For the setting “C57BL/6 mice, gadolinium chloride 20-60 mg/kg i.v. plus 2×10^6 to 100×10^6 bone marrow cells/animal, 2 weeks”, the “survival / evidence of toxicity” value is “All mice survived and none showed evidence of any toxicity”. The “GFP-fluorescent Kupffer cells in liver (fluorescent microscopy)” value (gadolinium chloride 20-60 mg/kg i.v. 24 hours before bone marrow cells from TgN(ACTbEGFP)1Osb mice, livers 2 weeks after stem cells, vs saline control) was “contained many GFP-fluorescent Kupffer cells”.

These data come from patent US20040234509A1, “Replacing liver cells with bone marrow-derived cells for treating disease and expressing therapeutic genes” (priority 2002, published 2004).
